Laboratory results: US9708318B2, “Bicyclic heterocycles as FGFR4 inhibitors” (Incyte Corporation, priority 2015, dated 2017)
pIC50: −log10 of the molar value. Read-outs that look alike come from different tables or passages of the source.

How the values were obtained:
FGFR2 = FGFR2 (Homo sapiens (Human), UniProt P21802); assay: FGFR Enzymatic Assay (FRET peptide phosphorylation), FGFR2; type: biochemical
Protocol: (§1) The inhibitor potency of the exemplified compounds was measured in an enzyme assay that measures peptide phosphorylation using FRET measurements to detect product formation. Inhibitors were serially diluted in DMSO and a volume of 0.5 μL was transferred to the wells of a 384-well plate.
(§2) The enzymes were purchased from Millipore or Invitrogen.
(§3) GraphPad prism3 was used to analyze the data.

FGFR1 = FGFR1 (Homo sapiens (Human), UniProt P11362); assay: FGFR Enzymatic Assay (FRET peptide phosphorylation), FGFR1; settings: for IC50: FGFR1 IC50 (nM); for pIC50: read-out: FGFR1 IC50
FGFR4 = FGFR4 (Homo sapiens (Human), UniProt P22455); assay: FGFR Enzymatic Assay (FRET peptide phosphorylation), FGFR4; type: biochemical
Protocol: as §1, §2, §3

FGFR3 enzyme = FGFR3 enzyme (Homo sapiens (Human), UniProt P22607); assay: FGFR Enzymatic Assay (FRET peptide phosphorylation), FGFR3; type: biochemical; settings: for FGFR1/FGFR3 IC50 ratio / FGFR4/FGFR3 IC50 ratio: FGFR3 selectivity; for pIC50: read-out: FGFR3 IC50
Protocol: as §1, §3

[1] = pre-incubated for 5 to 10 minutes

FGFR2, sequence (P21802 22-821): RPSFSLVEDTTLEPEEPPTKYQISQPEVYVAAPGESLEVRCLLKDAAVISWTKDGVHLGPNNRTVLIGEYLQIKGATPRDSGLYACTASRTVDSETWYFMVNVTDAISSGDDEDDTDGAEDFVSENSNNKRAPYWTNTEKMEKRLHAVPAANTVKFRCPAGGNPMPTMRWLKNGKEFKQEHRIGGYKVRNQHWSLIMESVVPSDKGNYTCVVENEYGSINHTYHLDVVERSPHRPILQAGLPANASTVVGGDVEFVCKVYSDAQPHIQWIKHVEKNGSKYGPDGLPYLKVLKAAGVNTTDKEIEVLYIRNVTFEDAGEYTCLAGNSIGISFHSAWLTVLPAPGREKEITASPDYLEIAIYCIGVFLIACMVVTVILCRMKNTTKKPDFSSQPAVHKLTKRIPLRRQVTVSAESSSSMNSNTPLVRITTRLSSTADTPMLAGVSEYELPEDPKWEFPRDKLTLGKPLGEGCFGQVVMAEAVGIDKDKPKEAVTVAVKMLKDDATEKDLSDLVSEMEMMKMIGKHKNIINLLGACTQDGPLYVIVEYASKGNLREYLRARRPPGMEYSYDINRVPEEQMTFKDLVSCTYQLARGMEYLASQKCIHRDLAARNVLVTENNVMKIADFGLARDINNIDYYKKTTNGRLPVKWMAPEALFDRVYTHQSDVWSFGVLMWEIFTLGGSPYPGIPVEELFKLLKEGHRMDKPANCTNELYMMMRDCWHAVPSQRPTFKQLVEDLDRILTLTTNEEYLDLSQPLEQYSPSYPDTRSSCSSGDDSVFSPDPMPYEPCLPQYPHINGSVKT
FGFR3 enzyme, sequence (P22607 23-806): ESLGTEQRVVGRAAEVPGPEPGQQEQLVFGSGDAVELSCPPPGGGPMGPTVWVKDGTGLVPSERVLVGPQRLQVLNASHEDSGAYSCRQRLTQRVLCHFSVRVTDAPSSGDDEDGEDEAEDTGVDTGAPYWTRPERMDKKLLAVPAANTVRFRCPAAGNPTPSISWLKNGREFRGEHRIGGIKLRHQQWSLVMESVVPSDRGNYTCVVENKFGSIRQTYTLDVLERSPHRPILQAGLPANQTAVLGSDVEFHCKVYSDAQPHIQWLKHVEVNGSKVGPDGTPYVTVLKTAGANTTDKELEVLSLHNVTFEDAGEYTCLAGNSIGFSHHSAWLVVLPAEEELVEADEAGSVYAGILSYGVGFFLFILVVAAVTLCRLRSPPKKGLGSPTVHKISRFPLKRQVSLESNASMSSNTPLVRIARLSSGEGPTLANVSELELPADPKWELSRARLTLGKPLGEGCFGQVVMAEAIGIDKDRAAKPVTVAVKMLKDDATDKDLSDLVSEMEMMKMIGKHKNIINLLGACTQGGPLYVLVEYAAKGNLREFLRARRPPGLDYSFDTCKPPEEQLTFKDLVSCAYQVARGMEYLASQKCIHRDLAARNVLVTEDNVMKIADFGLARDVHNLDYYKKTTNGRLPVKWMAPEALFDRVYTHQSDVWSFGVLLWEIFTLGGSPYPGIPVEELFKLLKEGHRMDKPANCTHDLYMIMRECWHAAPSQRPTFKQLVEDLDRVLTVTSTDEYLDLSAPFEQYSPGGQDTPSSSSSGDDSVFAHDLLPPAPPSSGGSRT
FGFR1, sequence (P11362 22-822): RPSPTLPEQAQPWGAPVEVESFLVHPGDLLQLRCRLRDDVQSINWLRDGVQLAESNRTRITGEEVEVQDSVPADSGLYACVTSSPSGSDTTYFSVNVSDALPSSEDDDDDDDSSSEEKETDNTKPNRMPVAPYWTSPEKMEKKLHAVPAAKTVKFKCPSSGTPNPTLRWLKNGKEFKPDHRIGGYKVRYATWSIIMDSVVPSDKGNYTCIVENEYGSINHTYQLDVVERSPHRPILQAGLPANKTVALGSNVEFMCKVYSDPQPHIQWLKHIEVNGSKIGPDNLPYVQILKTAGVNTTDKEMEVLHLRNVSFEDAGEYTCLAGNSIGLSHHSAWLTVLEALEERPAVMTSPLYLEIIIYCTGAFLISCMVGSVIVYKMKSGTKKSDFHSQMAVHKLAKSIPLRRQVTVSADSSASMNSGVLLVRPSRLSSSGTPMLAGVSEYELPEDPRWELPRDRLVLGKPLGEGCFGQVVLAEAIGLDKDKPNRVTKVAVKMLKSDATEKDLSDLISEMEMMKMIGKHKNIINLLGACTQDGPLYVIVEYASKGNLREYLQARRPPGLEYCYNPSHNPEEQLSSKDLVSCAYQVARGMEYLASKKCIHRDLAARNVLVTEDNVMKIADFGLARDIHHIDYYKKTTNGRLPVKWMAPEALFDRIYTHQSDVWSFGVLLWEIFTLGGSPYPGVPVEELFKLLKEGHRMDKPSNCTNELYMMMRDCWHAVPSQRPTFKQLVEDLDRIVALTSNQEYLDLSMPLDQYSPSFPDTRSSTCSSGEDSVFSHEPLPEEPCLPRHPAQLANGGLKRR
FGFR4, sequence (P22455 22-802): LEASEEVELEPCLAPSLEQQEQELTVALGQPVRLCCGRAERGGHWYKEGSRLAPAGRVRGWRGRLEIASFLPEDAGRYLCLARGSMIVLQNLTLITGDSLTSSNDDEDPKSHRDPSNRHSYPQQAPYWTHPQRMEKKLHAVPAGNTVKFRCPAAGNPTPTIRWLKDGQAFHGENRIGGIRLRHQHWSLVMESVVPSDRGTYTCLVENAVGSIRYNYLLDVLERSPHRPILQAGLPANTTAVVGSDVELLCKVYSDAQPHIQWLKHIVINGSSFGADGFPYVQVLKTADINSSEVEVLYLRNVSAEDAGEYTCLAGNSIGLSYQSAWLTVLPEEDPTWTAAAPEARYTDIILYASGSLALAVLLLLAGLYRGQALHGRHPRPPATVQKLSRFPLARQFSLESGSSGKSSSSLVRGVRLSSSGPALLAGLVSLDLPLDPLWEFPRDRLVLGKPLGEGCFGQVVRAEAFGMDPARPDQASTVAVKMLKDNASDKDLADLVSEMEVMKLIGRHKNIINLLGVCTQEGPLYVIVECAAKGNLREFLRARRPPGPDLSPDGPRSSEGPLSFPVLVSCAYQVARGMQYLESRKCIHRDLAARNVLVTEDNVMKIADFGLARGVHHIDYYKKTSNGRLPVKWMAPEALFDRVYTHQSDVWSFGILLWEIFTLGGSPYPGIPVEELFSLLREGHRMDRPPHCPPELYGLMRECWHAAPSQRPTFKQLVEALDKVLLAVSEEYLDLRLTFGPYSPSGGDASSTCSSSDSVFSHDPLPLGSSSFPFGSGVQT

| Structure (SMILES) | pIC50 (FGFR2; pre-incubated for 4 hours) | IC50 (FGFR1; pre-incubated for 4 hours) [nM] | pIC50 (FGFR4; pre-incubated for 4 hours) | FGFR1/FGFR3 IC50 ratio (FGFR3 enzyme; pre-incubated for 4 hours) | pIC50 (FGFR3 enzyme; pre-incubated for 4 hours) | FGFR4/FGFR3 IC50 ratio (FGFR3 enzyme; pre-incubated for 4 hours) | pIC50 (FGFR1; pre-incubated for 4 hours) | pIC50 (FGFR2; [1]) | IC50 (FGFR1; [1]) [nM] | pIC50 (FGFR4; [1]) | pIC50 (FGFR3 enzyme; [1]) |
| --- | --- | --- | --- | --- | --- | --- | --- | --- | --- | --- | --- |
| COc1cc(OC)c(F)c(N2Cc3cnc(-c4cn(C)nc4C)cc3C3(CC3)C2=O)c1F [Example 21, 2′-(2,6-difluoro-3,5-dimethoxyphenyl)-6′-(1,3-dimethyl-1H-pyrazol-4-yl)-1′,2′-dihydro-3′H-spiro[cyclopropane-1,4′-[2,7]naphthyridin]-3′-one] | > 8.00 | 10 to 30 | 7.52 to 8.00 | >5 | > 8.00 | – | – | – | – | – | – |
| COc1cc(OC)c(F)c(N2Cc3cnc(-c4cn(C)nc4C)cc3N(c3cnc(C)cn3)C2=O)c1F [Example 107, 3-(2,6-difluoro-3,5-dimethoxyphenyl)-7-(1,3-dimethyl-1H-pyrazol-4-yl)-1-(5-methylpyrazin-2-yl)-3,4-dihydropyrido[4,3-d]pyrimidin-2(1H)-one] | 7.52 to 8.00 | 30 to 200 | 6.70 to 7.52 | >3 | 7.52 to 8.00 | >10 | – | – | – | – | – |
| COc1cc(OC)c(F)c(N2Cc3cnc(-c4cnn(C5CCN(C(C)=O)C5)c4)cc3C3(CC3)C2=O)c1F (centres unmarked) [Example 150, 6′-(1-(1-acetylpyrrolidin-3-yl)-1H-pyrazol-4-yl)-2′-(2,6-difluoro-3,5-dimethoxyphenyl)-1′H-spiro[cyclopropane-1,4′-[2,7]naphthyridin]-3′(2′H)-one] | > 8.00 | – | > 8.00 | >5 | > 8.00 | >5 | > 8.00 | – | – | – | – |
| COc1cc(OC)c(F)c(N2Cc3cnc(-c4ccc(C5(C#N)CCC5)nc4)cc3N(c3ccncn3)C2=O)c1F [Example 135, 1-(5-(3-(2,6-difluoro-3,5-dimethoxyphenyl)-2-oxo-1-(pyrimidin-4-yl)-1,2,3,4-tetrahydropyrido[4,3-d]pyrimidin-7-yl)pyridin-2-yl)cyclobutanecarbonitrile] | > 8.00 | 30 to 200 | 6.70 to 7.52 | >5 | > 8.00 | >10 | – | – | – | – | – |
| COc1cc(OC)c(F)c(N2Cc3cnc(-c4cn(C)nc4C)cc3N(c3ncccn3)C2=O)c1F [Example 105, 3-(2,6-difluoro-3,5-dimethoxyphenyl)-7-(1,3-dimethyl-1H-pyrazol-4-yl)-1-(pyrimidin-2-yl)-3,4-dihydropyrido[4,3-d]pyrimidin-2(1H)-one] | 7.52 to 8.00 | 30 to 200 | 6.70 to 7.52 | >3 | 7.52 to 8.00 | >5 | – | – | – | – | – |
| CCc1cnc(N2C(=O)N(c3c(F)c(OC)cc(OC)c3F)Cc3cnc(-c4cn(C)nc4C)cc32)cn1 [Example 106, 3-(2,6-difluoro-3,5-dimethoxyphenyl)-7-(1,3-dimethyl-1H-pyrazol-4-yl)-1-(5-ethylpyrazin-2-yl)-3,4-dihydropyrido[4,3-d]pyrimidin-2(1H)-one] | 6.70 to 7.52 | 30 to 200 | 6.70 to 7.52 | >3 | 7.52 to 8.00 | >5 | – | – | – | – | – |
| COc1cc(OC)c(F)c(N2Cc3cnc(-c4cnn(CC5CN(C(C)=O)C5)c4)cc3C3(CC3)C2=O)c1F [Example 167, 6′-(1-((1-acetylazetidin-3-yl)methyl)-1H-pyrazol-4-yl)-2′-(2,6-difluoro-3,5-dimethoxyphenyl)-1′H-spiro[cyclopropane-1,4′-[2,7]naphthyridin]-3′(2′H)-one] | > 8.00 | – | 7.52 to 8.00 | >3 | > 8.00 | >3 | > 8.00 | – | – | – | – |
| COc1cc(OC)c(F)c(N2Cc3cnc(-c4cn(C)nc4C)cc3N(Cc3cnn(C4CC4)c3)C2=O)c1F [Example 124, 1-((1-cyclopropyl-1H-pyrazol-4-yl)methyl)-3-(2,6-difluoro-3,5-dimethoxyphenyl)-7-(1,3-dimethyl-1H-pyrazol-4-yl)-3,4-dihydropyrido[4,3-d]pyrimidin-2(1H)-one] | > 8.00 | – | > 8.00 | >10 | > 8.00 | >10 | > 8.00 | – | – | – | – |
| CCOc1cc(CN2C(=O)N(c3c(F)c(OC)cc(OC)c3F)Cc3cnc(-c4cn(C)nc4C)cc32)ccn1 [Example 116, 3-(2,6-difluoro-3,5-dimethoxyphenyl)-7-(1,3-dimethyl-1H-pyrazol-4-yl)-1-((2-ethoxypyridin-4-yl)methyl)-3,4-dihydropyrido[4,3-d]pyrimidin-2(1H)-one] | – | – | – | – | – | – | – | > 8.00 | 10 to 30 | 7.52 to 8.00 | > 8.00 |
| COc1cc(OC)c(F)c(N2Cc3cnc(-c4cn(C)nc4C)cc3N(c3ccncn3)C2=O)c1F [Example 45, 3-(2,6-difluoro-3,5-dimethoxyphenyl)-7-(1,3-dimethyl-1H-pyrazol-4-yl)-1-pyrimidin-4-yl-3,4-dihydropyrido[4,3-d]pyrimidin-2(1H)-one] | 7.52 to 8.00 | 30 to 200 | 6.70 to 7.52 | >10 | > 8.00 | >10 | – | – | – | – | – |
| COc1cc(OC)c(F)c(N2Cc3cnc(-c4cn(C)nc4C)cc3N(c3ccc4[nH]ncc4c3)C2=O)c1F [Example 134, 3-(2,6-difluoro-3,5-dimethoxyphenyl)-7-(1,3-dimethyl-1H-pyrazol-4-yl)-1-(1H-indazol-5-yl)-3,4-dihydropyrido[4,3-d]pyrimidin-2(1H)-one] | > 8.00 | 10 to 30 | 6.70 to 7.52 | >3 | > 8.00 | >5 | – | – | – | – | – |
| COc1cc(OC)c(F)c(N2Cc3cnc(-c4cn(C)nc4C)cc3N(c3cnccn3)C2=O)c1F [Example 70, 3-(2,6-difluoro-3,5-dimethoxyphenyl)-7-(1,3-dimethyl-1H-pyrazol-4-yl)-1-(pyrazin-2-yl)-3,4-dihydropyrido[4,3-d]pyrimidin-2(1H)-one] | 7.52 to 8.00 | 30 to 200 | 6.70 to 7.52 | >5 | 7.52 to 8.00 | >5 | – | – | – | – | – |
| COc1cc(OC)c(F)c(N2Cc3cnc(-c4cn(C)nc4C)cc3N(c3ccc(C#N)cn3)C2=O)c1F [Example 79, 6-(3-(2,6-difluoro-3,5-dimethoxyphenyl)-7-(1,3-dimethyl-1H-pyrazol-4-yl)-2-oxo-3,4-dihydropyrido[4,3-d]pyrimidin-1(2H)-yl)nicotinonitrile] | > 8.00 | 30 to 200 | 6.70 to 7.52 | >5 | > 8.00 | >3 | – | – | – | – | – |
| COc1cc(OC)c(F)c(N2Cc3cnc(-c4cn(C)nc4C)cc3N(c3cc(F)cc(F)c3)C2=O)c1F [Example 103, 3-(2,6-difluoro-3,5-dimethoxyphenyl)-1-(3,5-difluorophenyl)-7-(1,3-dimethyl-1H-pyrazol-4-yl)-3,4-dihydropyrido[4,3-d]pyrimidin-2(1H)-one] | 7.52 to 8.00 | 30 to 200 | 6.70 to 7.52 | >3 | 7.52 to 8.00 | >5 | – | – | – | – | – |
| COc1cc(OC)c(F)c(N2Cc3cnc(-c4ccc(C5(C#N)CCC5)nc4)cc3N(C3CCC3)C2=O)c1F [Example 136, 1-(5-(1-cyclobutyl-3-(2,6-difluoro-3,5-dimethoxyphenyl)-2-oxo-1,2,3,4-tetrahydropyrido[4,3-d]pyrimidin-7-yl)pyridin-2-yl)cyclobutanecarbonitrile] | – | – | – | – | – | – | – | 7.52 to 8.00 | 30 to 200 | 6.70 to 7.52 | 7.52 to 8.00 |
| COc1cc(OC)c(F)c(N2Cc3cnc(-c4ccncc4)cc3C3(CC3)C2=O)c1F [Example 185, 2′-(2,6-difluoro-3,5-dimethoxyphenyl)-6′-(pyridin-4-yl)-1′H-spiro[cyclopropane-1,4′-[2,7]naphthyridin]-3′(2′H)-one] | > 8.00 | 10 to 30 | 7.52 to 8.00 | >3 | > 8.00 | >3 | – | – | – | – | – |
| CNC(=O)c1ccc(CN2C(=O)N(c3c(F)c(OC)cc(OC)c3F)Cc3cnc(-c4cn(C)nc4C)cc32)cc1 [Example 62, 4-((3-(2,6-difluoro-3,5-dimethoxyphenyl)-7-(1,3-dimethyl-1H-pyrazol-4-yl)-2-oxo-3,4-dihydropyrido[4,3-d]pyrimidin-1(2H)-yl)methyl)-N-methylbenzamide] | 7.52 to 8.00 | 30 to 200 | 6.70 to 7.52 | >10 | > 8.00 | >5 | – | – | – | – | – |
| COc1cc(OC)c(F)c(N2Cc3cnc(-c4cn(C)nc4C)cc3N(c3ccc4c(c3)CC(=O)N4)C2=O)c1F [Example 119, 3-(2,6-difluoro-3,5-dimethoxyphenyl)-7-(1,3-dimethyl-1H-pyrazol-4-yl)-1-(2-oxoindolin-5-yl)-3,4-dihydropyrido[4,3-d]pyrimidin-2(1H)-one] | – | – | – | – | – | – | – | > 8.00 | 10 to 30 | 7.52 to 8.00 | > 8.00 |
| COc1cc(OC)c(F)c(N2Cc3cnc(-c4cn(C)nc4C)cc3N(c3ccc(-n4cccn4)cc3)C2=O)c1F [Example 77, 1-(4-(1H-pyrazol-1-yl)phenyl)-3-(2,6-difluoro-3,5-dimethoxyphenyl)-7-(1,3-dimethyl-1H-pyrazol-4-yl)-3,4-dihydropyrido[4,3-d]pyrimidin-2(1H)-one] | > 8.00 | 10 to 30 | 6.70 to 7.52 | >5 | > 8.00 | >10 | – | – | – | – | – |
